The record followed here is patent US7727736B2, “Soluble phospholipids for use in clotting factor assays” (The University of North Carolina at Chapel Hill, priority 2003, dated 2010).

The target in the experiment is T1, FXa•FVa2 complex (Homo sapiens, UniProt P00742+P12259).
T1 construct: Human prothrombin and factor Xa; tissue Hematologic Technologies Inc. (factor Xa only); factor Xa purchased
Briefly: Native gel electrophoresis (Ferguson analysis), C6PS bound to FXa•FVa2 complex. Type of experiment: binding. On the procedure:
A mixture of FXa and FVa2 in the absence (lane 1 of gel) and presence (lane 2) of 400 μM C6PS (5 mM Ca^2+) was analyzed by native polyacrylamide gel electrophoresis on a standard 6% gel (Majumder, et al. (2002) supra). A log-log plot of retardation coefficients versus molecular mass of different reference proteins is also shown (open circles). Points have been added to this plot for retardation coefficients obtained for FXa (triangle) or FVa2 (4-point star) in the absence of C6PS, and of the FXa•FVa2 complex (5-point star) formed in the presence of C6PS. The apparent molecular weight of the complex, as identified from this plot, was 224±3.7 kilodaltons.
Native Gel Electrophoresis. This method has been used to document the association of blood coagulation proteins in solution (Majumder, et al. (2002) supra; Majumder, et al. (2003) supra). […] Protein retardation coefficients, which depend to a good approximation only on the hydrodynamic size and shape of the protein, were determined for both the marker and unknown proteins (Ferguson (1964) Metabolism 13:985-1002). A log-log plot of the retardation coefficient against the molecular weights of the marker proteins produced a linear curve from which the molecular weight of the FVa•FXa complex was determined from its measured retardation coefficient (Bryan (1977) Anal. Biochem. 78(2):513-9). […]

T1 sequence (P00742 41-179 limits assumed): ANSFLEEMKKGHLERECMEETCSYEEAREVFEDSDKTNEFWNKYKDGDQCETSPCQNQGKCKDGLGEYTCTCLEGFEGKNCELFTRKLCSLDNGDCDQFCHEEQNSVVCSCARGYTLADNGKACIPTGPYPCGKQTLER
T1 sequence (P00742 235-488 limits assumed): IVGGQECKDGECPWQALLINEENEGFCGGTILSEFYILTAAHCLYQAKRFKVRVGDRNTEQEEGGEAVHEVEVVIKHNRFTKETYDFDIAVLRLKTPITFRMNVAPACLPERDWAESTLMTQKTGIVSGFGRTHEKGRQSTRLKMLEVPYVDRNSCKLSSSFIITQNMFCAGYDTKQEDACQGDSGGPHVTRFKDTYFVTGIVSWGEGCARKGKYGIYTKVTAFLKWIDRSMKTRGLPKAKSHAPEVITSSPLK
T1 sequence (P12259 29-737 limits assumed): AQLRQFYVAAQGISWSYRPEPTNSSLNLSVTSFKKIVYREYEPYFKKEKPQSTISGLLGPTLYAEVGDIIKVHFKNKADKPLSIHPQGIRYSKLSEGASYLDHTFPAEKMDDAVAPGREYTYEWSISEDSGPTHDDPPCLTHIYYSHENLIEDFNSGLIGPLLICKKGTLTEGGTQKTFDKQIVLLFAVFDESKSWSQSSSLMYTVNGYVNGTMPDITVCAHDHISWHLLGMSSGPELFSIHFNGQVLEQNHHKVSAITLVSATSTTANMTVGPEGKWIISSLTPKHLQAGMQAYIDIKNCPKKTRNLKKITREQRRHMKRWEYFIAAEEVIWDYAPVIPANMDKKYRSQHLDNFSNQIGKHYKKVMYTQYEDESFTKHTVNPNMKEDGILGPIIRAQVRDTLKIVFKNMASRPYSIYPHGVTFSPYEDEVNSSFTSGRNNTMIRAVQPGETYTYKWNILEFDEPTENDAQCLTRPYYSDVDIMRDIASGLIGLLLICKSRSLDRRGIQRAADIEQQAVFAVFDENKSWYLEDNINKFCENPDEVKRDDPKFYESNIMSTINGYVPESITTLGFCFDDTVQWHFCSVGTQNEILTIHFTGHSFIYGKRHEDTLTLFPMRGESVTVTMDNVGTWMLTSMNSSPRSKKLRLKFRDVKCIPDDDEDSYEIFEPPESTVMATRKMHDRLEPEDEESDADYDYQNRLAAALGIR
T1 sequence (P12259 1574-2224 limits assumed): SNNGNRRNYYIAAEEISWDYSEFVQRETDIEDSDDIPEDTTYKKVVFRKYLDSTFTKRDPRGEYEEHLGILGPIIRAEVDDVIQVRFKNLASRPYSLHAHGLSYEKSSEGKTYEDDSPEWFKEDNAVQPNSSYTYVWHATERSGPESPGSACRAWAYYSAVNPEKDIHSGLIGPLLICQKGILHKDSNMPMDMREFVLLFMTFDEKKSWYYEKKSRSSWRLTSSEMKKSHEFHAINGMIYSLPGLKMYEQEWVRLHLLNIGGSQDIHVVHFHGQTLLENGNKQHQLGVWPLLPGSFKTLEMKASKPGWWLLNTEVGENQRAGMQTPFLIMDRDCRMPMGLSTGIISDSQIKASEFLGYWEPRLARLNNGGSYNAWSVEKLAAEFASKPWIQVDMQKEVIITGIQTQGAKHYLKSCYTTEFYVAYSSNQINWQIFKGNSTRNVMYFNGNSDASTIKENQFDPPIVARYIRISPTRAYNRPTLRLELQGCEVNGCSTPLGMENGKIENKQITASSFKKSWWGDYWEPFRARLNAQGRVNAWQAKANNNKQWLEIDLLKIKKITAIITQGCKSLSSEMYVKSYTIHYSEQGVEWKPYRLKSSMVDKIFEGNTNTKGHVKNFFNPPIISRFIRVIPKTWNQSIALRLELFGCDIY

Turning to `CCCCCC(=O)OC[C@H](COP(=O)(O)OC[C@H](N)C(=O)O)OC(=O)CCCCC` [C6PS, 1,2-dicaproyl-sn-glycero-3-phospho-L-serine], under “400 μM C6PS”, the “C6PS in stoichiometry Xa:Va2:C6PS of the complex from molecular mass” value was 3.4±7.7. For the same compound, the “most likely number of C6PS molecules bound to the complex” value (based on equilibrium dialysis stoichiometries) is given as 5-6 molecules.
